The conditions of data set [1]: cited from earlier work; for Ks with HP-β-CD (from phase solubility study): LA base form; for solubility increment of CAP: at least 10 times greater HP-β-CD concentrations.
The conditions of data set [2]: cited from earlier work.
Data set [3] can be described thus: DOSY NMR diffusion, complexed fraction and association constant. It is filed as physicochemical. The procedure:
DOSY is an experiment that separates the signals of a mixture of components according to the size and shape of the molecules. DOSY experiments were conducted with the pulse sequence ledbpgp2s, with a time diffusion of 0.06 s. […] The average acquisition time of the experiment was 40 min. The processing program (Dosy Toolbox) was run with data transformed using fn = 32 K. The diffusion coefficient and standard deviation of each species was given by the arithmetic mean of all coefficients of the same species. DOSY allows determination of the association constant (Ka), between guest molecules and CDs. Ka values are inferred from the complexed fraction (Fcomplexed) of the guest molecule, and both values were calculated accordingly to Equations (4) and (5), where Ddrug is the diffusion coefficient of the free drug, Dcomplex is the diffusion coefficient of the complex, Dcyclodextrin is the diffusion coefficient of free CD, and R is the molar concentration of non-complexed CD [25]:(4) Fcomplexed=[Ddrug−Dcomplex]/[Ddrug−Dciclodextrin] (5) Ka=[Ddrug−Dcomplex]/[Ddrug−Dciclodextrin] × R

Details of data set [4]: method as in PMID 19440843. To be noted: pure HP-β-CD 15% m/w; cited from earlier work.
A short description of data set [5]: Phase solubility study of CAP with HP-β-CD. It is filed as physicochemical. The method, then: The effects of HP-β-CD on the solubility of CAP was investigated according to the phase solubility method described by Higuchi and Connors. In this experiment increasing concentrations of CD (0–10 mM) were added to a saturated CAP solution. The solutions were left under magnetic stirring for 48 h (350 rpm and 25 °C). Aliquots of each vial were centrifuged for 10 min (4100× g) and the supernatant was filtered through 0.45 μm (Millipore, Burlington, Massachusetts, USA) and diluted to determine CAP concentration by UV absorption at 280 nm. The phase solubility diagram was obtained by plotting the solubility of CAP, versus the concentrations of HP-β-CD […]. The apparent stability constant (Ks) were calculated by Equation (1), where S0 is the aqueous molar solubility of the drug, taken from the Y intercept of the plot:(1) Ks=slope/S0(1−slope)
The complexation efficiency (CE) determines the adequate ratio of CDs to ensure maximum solubility of the complexed drug. For the CAP-HP-β-CD complex, CE was calculated from the phase solubility plots, according to Equation (2). The CE values allow drug/CD ratio in the formulation, according to Equation (3):(2) CE=slope/(1−slope) (3) Drug:CD=1/(CE+1)/CE

The nature of data set [6]: In vitro release, Franz-type vertical diffusion cell. The class given is physicochemical. To be noted: 37 °C, PBS pH 7.4, n = 3. The method, then: A “Franz-type” vertical diffusion cell system was used to evaluate the in vitro release of CAP, comparing the free (dissolved in 20% ethanolic solution) and complexed drug with HP-β-CD [26]. The diffusion system consists of two compartments: the donor one—containing 1 mL of the sample—and the acceptor compartment, containing 12 mL of buffer (10 mM phosphate buffered saline, pH 7.4) kept at 37 °C, under mild stirring to ensure sink condition. A cellulose membrane (Spectrapore, Los Angeles, 1000 Da molecular exclusion pore) separated the two compartments. Aliquots (200 μL) were withdrawn from the acceptor compartment at fixed intervals (15, 30, […], 60, and 90 min, and every hour for 6 h) and the volume was replaced with fresh medium. CAP was quantified by HPLC, in a Waters Breeze 2 System (Waters, Milford, Massachussets, USA) at 280 nm and 30 °C, using a Luna® C18 (2) reverse phase (25 × 4.6 mm, 5 μm) (Phenomenex, Torrance, California, USA), 30-µL injection volume, phosphoric acid (1:1000 v/v) and acetonitrile (7:3 v:v), at pH 2.4, and 1.0 mL/min flow rate.

Data set [7] deals with carrageenan-inflamed mice paw. Kind of data set: Analgesia in inflamed tissue, carrageenan-induced hyperalgesia, mechanical allodynia in mice hind paw. The class given is in vivo, Male Swiss mice. To be noted: 2% solution, subplantar injection, 4 h after carrageenan. The procedure: The antinociceptive effect of the association between mepivacaine and complexed CAP (HP-β-CD-CAP) was evaluated in vivo. A sample of freeze-dried HP-β-CD-CAP was resuspended in 4 mL of mepivacaine hydrochloride solution (MVC) to final concentrations of 1.6 mM (0.05%) CAP and 2% MVC. MVC solution was previously sterilized by filtration 0.22 μm. (Millipore, Burlington, Massachusetts, USA). Male Swiss mice (30–35 g) were obtained from Centro de Bioterismo, University of Campinas, UNICAMP (CEMIB-UNICAMP, Campinas, São Paulo, Brazil) and housed in standard cages under a 12/12 h of light/dark cycle. All experiments were approved by the institutional animal care and use committee of Unicamp, meaning it follows the Brazilian national guideline, which is in line with the National Institutes of Health guide for the care and use of Laboratory animals (protocol # 4402-1).
The mechanical allodynia was analyzed in mice hind paw by a Dynamic Plantar Aesthesiometer (model 37450, Ugo Basile, Italy). The animals were placed in an elevated cage for 2 h before the test, for setting and training. […] The anesthetic formulations were then applied into the same subplantar region of the right paw of the mice, and the pain threshold was evaluated every 15 min. […] After the mechanical stimulus, the time elapsed until paw withdrawal as well as the applied pressure value were automatically recorded.

Setting [8] is: complexation with HP-β-CD, DOSY-NMR.

We go through 9 compounds from PMC7460887, “Capsaicin-Cyclodextrin Complex Enhances Mepivacaine Targeting and Improves Local Anesthesia in Inflamed Tissues” (International Journal of Molecular Sciences, 2020).

Values after ≈ are worked out from the molar mass of the structure shown. Structures can show the parent of a compound that is named as a salt. Where two headings read alike, the source gives them in different places.

`CCCCN1CCCCC1C(=O)Nc1c(C)cccc1C` (centres unmarked) [bupivacaine]: the “Ks with HP-β-CD (from phase solubility study)” value in data set [1] is 95 M⁻¹.
Regarding `CCCCN1CCCC[C@H]1C(=O)Nc1c(C)cccc1C` [S-bupivacaine], in data set [2] (setting [8]), the “association constant (Ka)” value is 91 M⁻¹ and the “complexed fraction (Fcomplexed)” value is listed as 57%.
Consider `Clc1ccccc1C(c1ccccc1)(c1ccccc1)n1ccnc1` [clotrimazole], for which the “molecules of HP-β-CD demanded for optimal complexation” value (“molecules of HP-β-CD demanded” below) in data set [1] is listed as 21 molecules.
In the case of hydroxypropyl-β-cyclodextrin [HP-β-CD], the “diffusion coefficient (D)” value is 2.21 × 10^−10 m^2s^−1 in data set [2] and 2.00 × 10^−10 m^2s^−1 in data set [3]. In addition, the “HP-β-CD concentration above which aggregates start” value in data set [1] is on record as “higher than 12 mM”. The “collapse temperature (Tc)” value in data set [4] is −9.5 °C.
Take `COc1cc(CNC(=O)CCCC/C=C/C(C)C)ccc1O` [CAP, Capsaicin]: the entries for the “diffusion coefficient (D)” value in data set [2] and in data set [3] were 4.81 × 10^−10 m^2s^−1 and 4.94 × 10^−10 m^2s^−1, respectively. Also, the figures for the “solubility increment of CAP” value in data set [1] (at 27 °C) and in data set [1] (at 37 °C) were 160 times and 147 times, respectively. The “improvement of apparent solubility of CAP” value in data set [5] is listed as “up to 20 times”. In data set [5], the “moles of HP-β-CD required per mole of drug to solubilize (D:CD, Equation (3))” value was 4.2 mol. The solubility at 48 h in data set [5] (25 °C, aqueous with cosolvent or surfactant or cyclodextrin, thermodynamic from solid) was found to be 2200 µM (≈ 672 µg/mL). In addition, in data set [6], the “time of CAP release” value is 5 h.
Consider `CC(C)(C)c1ccc(C(O)CCCN2CCC(C(O)(c3ccccc3)c3ccccc3)CC2)cc1` (centres unmarked) [terfenadine], for which the “molecules of HP-β-CD demanded” value in data set [1] is 4 molecules.
Regarding `Cc1cccc(C)c1NC(=O)C1CCCCN1C` (centres unmarked) [MVC, mepivacaine hydrochloride], in data set [7], the “induction of anesthesia in inflamed paw” value is “did not induce anesthesia in mice at any time tested”.
In the case of `Cc1cccc(C)c1NC(=O)C1CCCCN1C` (centres unmarked) [mepivacaine], the “Ks with HP-β-CD (from phase solubility study)” value in data set [1] was 38 M⁻¹.
For `Clc1ccc(COC(Cn2ccnc2)c2ccc(Cl)cc2Cl)c(Cl)c1` (centres unmarked) [miconazole], the “molecules of HP-β-CD demanded” value in data set [1] is on record as 12 molecules.

By solubility is commonly meant the dissolved amount per volume that the medium holds.
